Source: patent US9381182B2, “Anthranilic acid derivatives: novel inhibitors of advanced glycation end-products (AGEs) formation” (priority 2013, dated 2016)
Where two headings read alike, the source gives them in different places.

Assays:
[1] = test system: rat hepatocytes (CC1-Cell line); experiment: AGE-mediated reduced growth of rat hepatocytes, MTT assay; format: cell-based; conditions: for Absorbance (Average): 540 nm
Excerpt: Methodology: Normal, rat hepatocytes (CC1-Cell line) was purchased from ATCC, Manassas, Va., USA. MEM (Minimum Essential Medium) with L-glutamine, trypsin-EDTA, sodium bicarbonate and penicillin-streptomycin were obtained from Sigma, St. Louis, Mo., USA. 96-well tissue culture treated, sterile, round bottom plates were acquired from Thermo Fisher Scientific, Waltham, Mass., USA.
All the treatment with the AGEs and the test compound were done in SFM (serum free medium), and Triton X-100 treated hepatocytes were used as a blank, while untreated normal cells were used as a control.
Determination of Cellular Proliferation: At the end of the incubation, the sample solution was removed and MTT-dye ((2 mg/mL, 50 μL) was added to each well. The final reaction volume (200 μL) was reconstituted by MEM (serum free-Minimum essential media). The plate was incubated for 4 hours at 37° C. in 5% CO2 containing incubator. Following incubation, the serum free medium was removed and the crystals were dissolved by adding DMSO (100 μL) in each well.
Absorbance Detection: The absorbance of the colored solution was measured at 540 nm by Spectra Max Spectrophotometer, Applied Biosystems, CA, USA.
Where, • Test Compound=Novel anthranilic acid derivative • Blank=Hepatocytes treated with Triton X-100 • Control=Untreated normal rat hepatocytes

[2] = test system: rat hepatocytes (CC1-Cell line); experiment: Fructose-derived AGE-mediated intracellular ROS generation, DCFH-DA technique; format: cell-based; conditions: for Fluorescence (Average), ROS production: no test compound
Description: Methodology: DCFH-DA (Dichlorofluorescin diacetate), H2O2 (Hydrogen peroxide), DMSO (Dimethyl sulfoxide) and PBS (Phosphate buffer saline) were obtained from Sigma, St. Louis, Mo., USA. 96-well black fluorescence plates (Tissue culture treated) were purchased from Thermo Fisher Scientific, Waltham, Mass., USA.
Assay Method: Briefly, rat hepatocytes (CC1-Cell line, 6×10^4 cells/mL) were loaded on a black fluorescence 96-well tissue culture treated plate for 24 hours at 37° C. in an incubator, containing 5% CO2. The cells were serum starved for another 24 hours by adding serum free medium-MEM (minimum essential medium) prior to treatment with fructose-derived AGE and the test compounds, anthranilic acid derivatives. Initially the cells were treated with non fluorescent probe, DCFH-DA (10 μM) in the dark for 45 mins. Following incubation the cells were washed twice with 1×PBS and were treated with different concentrations of the AGEs, such as 0, 50, 100, and 200 μg/mL, to evaluate the AGEs influence on the generation of intracellular ROS in a concentration dependent manner. The cells were then treated with the test compounds (novel anthranilic acid derivatives) at various concentrations 24, 33, and 49 μM, co-incubated with the AGE (200 μg/mL) for 24 hours at 37° C. At the end of the incubation, just before 1 hour, the cells were incubated with H2O2 (0.5%) as a control.
Fluorescence Detection: The intensity of green fluorescence, which is emitted upon the oxidation of the probe in the presence of intracellular ROS, is measured at the excitation and emission wavelength of 490 nm and 520 nm, respectively, by Spectra Max Spectrophotometer, Applied Biosystems, CA, USA.
Where, • Test compound=anthranilic acid derivative • Blank=Untreated normal rat hepatocytes • Control=Hepatocytes treated with 0.5% H2O2

[3] = MTT-based cytotoxicity assay; conditions: mouse, 3T3 mouse fibroblast cells, 3T3 cell-line, read-out: Cytotoxicity % Inhibition
Excerpt: Many studies have highlighted the contribution of AGEs in disease states and primarily investigated their deleterious effects and their possible mechanism of actions. Therefore, there is a need of synthesis and investigation of novel antiglycation agents, which are devoid of any adverse effects, may present a therapeutic approach for the delaying and treatment of premature aging and vascular abnormalities in diabetic patients. In the current study, we explored the novel antiglycation agents (1-18), which are potent inhibitors against the glycation process, and belong to anthranilic acid derivatives. The inhibitors were identified by using high throughput screening method, fluorescence-based antiglycation assay (see Table-1). The cytotoxicity studies were performed against mouse fibroblast cell-line (3T3 Cell-line) by employing MTT-based cytotoxicity assay. The mechanistic studies were also conducted to evaluate the effect of novel antiglycation inhibitors on AGEs-induced intracellular reactive oxygen species generation (ROS) and associated impaired proliferation in rat hepatocytes via dichlorofluorescin diacetate (DCFH-DA) and MTT-based cytotoxicity assay, respectively. Previously, these novel antiglycation inhibitors were known for anticancer and anti-inflammatory activities (Congiu C, et al., 2005).

[4] = target: T1, Human serum albumin (HSA) glycation by fructose (AGE-HSA) (Homo sapiens, UniProt P02768); experiment: In-vitro antiglycation activity against HSA glycation (fluorescence-based antiglycation assay); format: biochemical; conditions: for inhibition at 1000 µM: read-out: Antiglycation Activity % Inhibition
T1 construct: purchased Sigma Aldrich, St. Louis, Mo., USA
Description: Methodology: Human serum albumin (HSA) free from essential fatty acids and rutin were obtained from Sigma Aldrich, St. Louis, Mo., USA. D-fructose, sodium azide (NaN3) and dimethyl sulfoxide (DMSO) were acquired from Merck, Darmstadt, Germany. All solutions were prepared in sterile environment in deionized water at room temperature.
Assay Method: The assay was performed according the protocol of (Sattarahmady N, et al., 2007) with a little modification. […] Each sample solution (200 μL, final reaction volume) in triplicate loaded a 96-wll black fluorescence plate and was incubated for a week at 37° C. in an incubator.

[5] = compound 24 μM, co-incubated with AGEs 200 μg/mL, 24 hours
[6] = compound 33 μM, co-incubated with AGEs 200 μg/mL, 24 hours
[7] = compound 49 μM, co-incubated with AGEs 200 μg/mL, 24 hours
[8] = read-out: Antiglycation Activity IC50 ± SEM

T1 sequence (P02768 25-609): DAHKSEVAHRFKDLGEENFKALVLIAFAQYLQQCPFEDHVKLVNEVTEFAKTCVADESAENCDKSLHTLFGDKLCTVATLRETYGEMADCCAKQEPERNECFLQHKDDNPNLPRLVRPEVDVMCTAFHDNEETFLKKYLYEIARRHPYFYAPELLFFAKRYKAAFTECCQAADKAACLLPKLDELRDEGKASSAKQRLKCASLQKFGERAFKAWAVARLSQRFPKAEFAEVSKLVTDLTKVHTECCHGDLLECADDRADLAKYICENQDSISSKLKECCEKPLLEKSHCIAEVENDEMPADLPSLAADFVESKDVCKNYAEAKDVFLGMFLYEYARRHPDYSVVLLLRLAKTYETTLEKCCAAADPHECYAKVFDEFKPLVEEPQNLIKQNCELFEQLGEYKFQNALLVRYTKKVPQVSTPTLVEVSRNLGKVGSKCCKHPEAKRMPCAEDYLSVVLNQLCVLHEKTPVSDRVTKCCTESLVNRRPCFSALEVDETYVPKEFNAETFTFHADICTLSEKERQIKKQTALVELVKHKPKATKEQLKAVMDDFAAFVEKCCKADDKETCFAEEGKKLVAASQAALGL

| Compound | cytotoxicity [3] | inhibition at 1000 µM [4] | IC50 [4] | other results |
| --- | --- | --- | --- | --- |
| O=C(O)c1ccccc1Nc1ccc([N+](=O)[O-])cc1[N+](=O)[O-] [Compound 1, 2-(2,4-Dinitroanilino)benzoic acid] | 1.5% | 90% | – | inhibition at 24 µM ([1]; Rattus norvegicus, Hepatocyte, 24 h, compound 24 μM, co-incubated with AGEs 200 μg/mL, 24 hours, read-out: Percentage Inhibition (growth inhibition of hepatocytes)): 12%; inhibition at 33 µM ([1]; Rattus norvegicus, Hepatocyte, 24 h, compound 33 μM, co-incubated with AGEs 200 μg/mL, 24 hours, read-out: Percentage Inhibition (growth inhibition of hepatocytes)): 18.5%; inhibition at 49 µM ([1]; Rattus norvegicus, Hepatocyte, 24 h, compound 49 μM, co-incubated with AGEs 200 μg/mL, 24 hours, read-out: Percentage Inhibition (growth inhibition of hepatocytes)): 18.8%; Percentage Inhibition (growth inhibition of hepatocytes) ([1]; compound 24 μM, co-incubated with AGEs 200 μg/mL, 24 hours, 24 µM): 12.3%; Absorbance (Average) [1, 5]: 1.15; cytotoxic effect of the AGEs on the hepatocytes in presence of compound (in words) ([1]; compound 33 μM, AGEs 200 μg/mL): no cytotoxic effect; Absorbance (Average) [1, 6]: 1.09; reducing the toxic effects of the AGEs on the hepatocytes proliferation (in words) ([1]; compound 49 μM, AGEs 200 μg/mL): safe and effective; Absorbance (Average) [1, 7]: 1.08; inhibition at 24 µM ([2]; Rattus norvegicus, Hepatocyte, compound 24 μM, co-incubated with AGEs 200 μg/mL, 24 hours, read-out: Percentage Inhibition of AGE-induced intracellular ROS generation): 93.4%; inhibition at 33 µM ([2]; Rattus norvegicus, Hepatocyte, compound 33 μM, co-incubated with AGEs 200 μg/mL, 24 hours, read-out: Percentage Inhibition of AGE-induced intracellular ROS generation): 86.9%; inhibition at 49 µM ([2]; Rattus norvegicus, Hepatocyte, compound 49 μM, co-incubated with AGEs 200 μg/mL, 24 hours, read-out: Percentage Inhibition of AGE-induced intracellular ROS generation): 63.2%; Fluorescence (Average) [2, 5]: 90.6; Fluorescence (Average) [2, 6]: 101.2; inhibitory influence on the intracellular generation of ROS (in words) ([2]; compound 49 μM, AGE 200 μg/mL): moderate inhibitory influence; Fluorescence (Average) [2, 7]: 139.5; IC50 [4, 8]: 67.2 ± 0.004 µM |
| O=C(O)c1ccccc1Nc1ccc(Cl)cc1[N+](=O)[O-] [Compound 2, 2-(4-Chloro-2-nitroanilino)benzoic acid] | 5.6% | 82% | 137 ± 0.002 µM | – |
| COc1cc(OC)c(Nc2ccccc2C(=O)O)cc1Cl [Compound 3, 2-(5-Chloro-2,4-dimethoxyanilino)benzoic acid] | 22.4% | 75.1% | 266 ± 0.016 µM | – |
| O=C(O)c1ccccc1Nc1ccc(Cl)c([N+](=O)[O-])c1 [Compound 4, 2-(4-Chloro-3-nitroanilino)benzoic acid] | 19.7% | 68.9% | 266 ± 0.01 µM | – |
| O=C(O)c1ccccc1Nc1ccc(Cl)cc1 [Compound 5, 2-(4-Chloroanilino)benzoic acid] | 41.3% | 62% | 298 ± 0.015 µM | – |
| O=C(O)c1ccccc1Nc1ccccc1Cl [Compound 6, 2-(2-Chloroanilino)benzoic acid] | 0.9% | 68% | 426 ± 0.017 µM | – |
| O=C(O)c1ccccc1Nc1cc(Cl)cc([N+](=O)[O-])c1 [Compound 7, 2-(3-Chloro-5-nitroanilino)benzoic acid] | 13% | 84.4% | 166 ± 0.017 µM | – |
| Cc1ccc(Cl)cc1Nc1ccccc1C(=O)O [Compound 8, 2-(5-Chloro-2-methylanilino)benzoic acid] | 3.2% | 69% | 408 ± 0.03 µM | – |
| O=C(O)c1ccccc1Nc1cc([N+](=O)[O-])ccc1Cl [Compound 9, 2-(2-Chloro-5-nitroanilino)benzoic acid] | 3% | 79.4% | 314 ± 0.01 µM | – |
| O=C(O)c1ccccc1Nc1ccc(F)cc1F [Compound 10, 2-(2,4-Difluoroanilino)benzoic acid] | 1.1% | 63% | 558 ± 0.066 µM | – |
| O=C(O)c1ccccc1Nc1ccc(Cl)c(Cl)c1 [Compound 11, 2-(3,4-Dichloroanilino)benzoic acid] | 40.1% | 62% | 597 ± 0.021 µM | – |
| CCCCc1ccc(Nc2ccccc2C(=O)O)cc1 [Compound 12, 2-(4-Butylanilino)benzoic acid] | 17.3% | 70% | 407 ± 0.01 µM | – |
| Cc1cc(C)cc(Nc2ccccc2C(=O)O)c1 [Compound 13, 2-(3,5-Dimethylanilino)benzoic acid] | 4.8% | 65% | 457 ± 0.019 µM | – |
| O=C(O)c1ccccc1Nc1cc(Cl)c([N+](=O)[O-])cc1Cl [Compound 14, 2-(2,5-Dichloro-4-nitroanilino)benzoic acid] | 29.6% | 88.8% | 84.8 ± 0.003 µM | – |
| O=C(O)c1ccccc1Nc1cc(Cl)ccc1Cl [Compound 15, 2-(2,5-Dichloroanilino)benzoic acid] | 1.6% | 62% | 678 ± 0.047 µM | – |
| O=C(O)c1ccccc1Nc1cccc([N+](=O)[O-])c1 [Compound 16, 2-(3-Nitroanilino)benzoic acid] | 4.1% | 80% | – | IC50 [4, 8]: 264 ± 0.013 µM |
| O=C(O)c1ccccc1Nc1cc(Cl)ccc1[N+](=O)[O-] [Compound 17, 2-(5-Chloro-2-nitroanilino)benzoic acid] | 1.5% | 78% | 150 ± 0.001 µM | – |
| COc1cccc(Nc2ccccc2C(=O)O)c1 [Compound 18, 2-(3-Methoxyanilino)benzoic acid] | 7.1% | 71% | 398 ± 0.007 µM | – |
| C[C@@H]1O[C@@H](OC[C@H]2O[C@@H](Oc3c(-c4ccc(O)c(O)c4)oc4cc(O)cc(O)c4c3=O)[C@H](O)[C@@H](O)[C@@H]2O)[C@H](O)[C@H](O)[C@H]1O [rutin, reference compound] | – | – | – | IC50 [4, 8]: 70 ± 0.5 µM |
| AGEs | – | – | – | Fluorescence (Average), ROS production ([2]; 50 μg/mL, 24 hours): 114.4; Fluorescence (Average), ROS production ([2]; 100 μg/mL, 24 hours): 135.3; Fluorescence (Average), ROS production ([2]; 200 μg/mL, 24 hours): 201.9 |
